The target of one test is T1, human ALX receptor (Homo sapiens, UniProt P25090).
T1 construct: expressed in transfected cells; host or cells: HEK293 (HEK293-hALXR-Gα16)
T1 sequence (P25090 1-351): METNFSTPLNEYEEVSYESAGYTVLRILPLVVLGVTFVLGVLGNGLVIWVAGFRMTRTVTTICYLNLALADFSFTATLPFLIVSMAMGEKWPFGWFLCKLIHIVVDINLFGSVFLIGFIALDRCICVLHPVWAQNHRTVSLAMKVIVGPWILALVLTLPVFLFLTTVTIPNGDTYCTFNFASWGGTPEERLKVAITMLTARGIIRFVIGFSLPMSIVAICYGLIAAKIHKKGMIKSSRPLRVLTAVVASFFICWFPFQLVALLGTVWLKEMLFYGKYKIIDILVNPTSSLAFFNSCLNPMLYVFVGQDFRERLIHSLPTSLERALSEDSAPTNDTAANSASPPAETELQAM
Briefly: Intracellular calcium measurements (FLIPR), agonistic activity in HEK293-hALXR-Gα16 cells. Format: cell-based. The conditions noted are these: Fluo-4 calcium FLIPR, normalized to WKYMVm 10 nM. The method, boiled down: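 HEK293 cells expressing hALXR and Gα16 were loaded with 1 μM Fluo-4 AM and 20 mM HEPES for 60 min at 37°C, then exposed to serially diluted compound. FLIPR fluorescence was read at ex 488/em 540 nm. Baseline-subtracted peak responses were normalized to 10 nM WKYMVm.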
In general terms: A change in cytosolic calcium serves as a functional read-out for many receptors and channels.

The target in another test is T2, human FPRL2 (Homo sapiens, UniProt P25089).
T2 construct: expressed in transfected cells; host or cells: HEK293 (HEK293-hFPRL2-Gα16)
T2 sequence (P25089 1-353): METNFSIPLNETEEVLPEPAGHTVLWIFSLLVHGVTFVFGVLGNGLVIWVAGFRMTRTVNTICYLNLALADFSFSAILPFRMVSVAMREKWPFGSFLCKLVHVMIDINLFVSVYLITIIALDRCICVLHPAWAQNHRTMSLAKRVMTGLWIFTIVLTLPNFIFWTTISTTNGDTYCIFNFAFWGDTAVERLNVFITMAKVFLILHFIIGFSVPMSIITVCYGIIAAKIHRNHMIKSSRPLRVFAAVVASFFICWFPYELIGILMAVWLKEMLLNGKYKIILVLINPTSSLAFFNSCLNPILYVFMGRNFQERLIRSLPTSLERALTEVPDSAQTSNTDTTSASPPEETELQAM
Briefly: Intracellular calcium measurements (FLIPR), agonistic activity in HEK293-hFPRL2-Gα16 cells. The format is cell-based. The conditions noted are these: Fluo-4 calcium FLIPR, normalized to GLY14-Humanin 100 nM. The method, boiled down: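 Peak values after baseline subtraction are expressed relative to 100 nM Gly14-Humanin; compounds diluted in assay buffer from 10 mM DMSO stocks.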

Structures are written as SMILES.

In general, EC50 refers to the concentration at which the effect is half-maximal. As to `CC(=O)c1ccc(CNC(=O)C2C(C(=O)NCCCCN3CCCC3)C3CCC2C32CC2)o1` [Example 196, (5R)—N^5-(5-Acetyl-furan-2-yl-methyl)-(6R)—N^6-(4-pyrrolidin-1-yl-butyl)-(4S,7R)-[4,7-ethylene-spiro[2.4]heptane]-5,6-dicarboxamide], the values for the concentration for a half-maximal effect (EC50) at human ALX receptor and on human FPRL2 were 21 nM and 1080 nM, respectively.
For `Cc1ccc(CNC(=O)[C@H]2[C@H](C(=O)NCCCCN3CCCC3)[C@H]3C=C[C@@H]2C32CC2)cc1` (racemic) [Example 123, (5R*)—N^5-[(4-Methyl-phenyl)-methyl]-(6R*)—N^6-(4-pyrrolidin-1-yl-butyl)-(4S*,7R*)-[4,7-ethenylene-spiro[2.4]heptane]-5,6-dicarboxamide], the figures for the half-maximal effective concentration (EC50) at human ALX receptor and on human FPRL2 were 46 nM and 332 nM, respectively.
Consider `CC(=O)c1csc(CNC(=O)[C@H]2[C@H](C(=O)NCCCCN3CCCC3)[C@H]3C=C[C@@H]2C32CC2)n1` (racemic) [Example 191, (5R*)—N^5-(4-Acetyl-thiazol-2-yl-methyl)-(6R*)—N^6-(4-pyrrolidin-1-yl-butyl)-(4S*,7R*)-[4,7-ethenylene-spiro[2.4]heptane]-5,6-dicarboxamide], for which the concentration giving a half-maximal response (EC50) was 140 nM on human ALX receptor and 826 nM at human FPRL2.
Turning to `O=C(NCCCn1ccnc1)[C@H]1[C@H](C(=O)Nc2ccc(Br)cc2)[C@@H]2C=C[C@H]1C21CC1` (racemic) [Example 40, (5R*)—N^5-(4-Bromophenyl)-(6R*)—N^6-(3-1H-imidazol-1-yl-propyl)-(4S*,7R*)-[4,7-ethenylene-spiro[2.4]heptane]-5,6-dicarboxamide], the figures for the EC50 at human ALX receptor and on human FPRL2 were 9 nM and 848 nM, respectively.
The like results for `O=C(NCCCCO)[C@H]1[C@H](C(=O)Nc2ccc(Br)cc2)[C@@H]2C=C[C@H]1C21CC1` (racemic) [Example 42, (5R*)—N^5-(4-Bromophenyl)-(6R*)—N^6-(4-hydroxy-butyl)-(4S*,7R*)-[4,7-ethenylene-spiro[2.4]heptane]-5,6-dicarboxamide] were, in that order, 9.6 nM and 7840 nM.
As for `O=C(CCc1ccc(F)cc1)NC[C@H]1[C@H](C(=O)Nc2ccc(Br)cc2)[C@@H]2C=C[C@H]1C21CC1` (racemic) [Example 188, (5R*)—N^5-(4-Bromo-phenyl)-(6R*)-6-[(3-(4-fluoro-phenyl)-propionylamino)-methyl]-(4S*,7R*)-[4,7-ethenylene-spiro[2.4]heptane]-5-carboxamide], the half-maximal effective concentration (EC50) on human ALX receptor was 529 nM; at human FPRL2 it was 1920 nM.
Consider `O=C(NCCCCN1CCCC1)[C@H]1[C@H](C(=O)Nc2ncc(Br)s2)[C@@H]2C=C[C@H]1C21CC1` [Example 225, (5R)—N^5-(5-Bromo-thiazol-2-yl)-(6R)—N^6-(4-pyrrolidin-1-yl-butyl)-(4S,7R)-[4,7-ethenylene-spiro[2.4]heptane]-5,6-dicarboxamide], for which the concentration for a half-maximal effect (EC50) at human ALX receptor stood at 6.4 nM; at human FPRL2, 143 nM.
For the molecule `COc1ccc(CCNC(=O)[C@H]2[C@H](C(=O)NCCCCN3CCCC3)[C@H]3C=C[C@@H]2C32CC2)cc1` (racemic) [Example 378, (5R*)—N^5-(2-(4-Methoxyphenyl)ethyl)-(6R*)—N^6-(4-pyrrolidino-butyl)-(4S*,7R*)-[4,7-ethenylene-spiro[2.4]heptane]-5,6-dicarboxamide], the EC50 on human ALX receptor stood at 8610 nM; at human FPRL2, 74 nM.
The like results for `COc1ccc(CNC(=O)[C@H]2[C@H](C(=O)NCCCCN3CCCC3)[C@H]3C=C[C@@H]2C32CC2)cc1F` (racemic) [Example 228, (5R*)—N^5-(3-Fluoro-4-methoxy-phenyl-methyl)-(6R*)—N^6-(4-pyrrolidin-1-yl-butyl)-(4S*,7R*)-[4,7-ethenylene-spiro[2.4]heptane]-5,6-dicarboxamide] were, in that order, 389 nM and 308 nM.
Turning to `O=C(NCCCCN1CC[C@H](F)C1)[C@H]1[C@H](C(=O)Nc2ccc(Br)cc2)[C@@H]2C=C[C@H]1C21CC1` [Example 220, (5R)—N^5-(4-Bromophenyl)-(6R)—N^6-(4-((3S)-fluoropyrrolidino)butyl)-(4S,7R)-[4,7-ethenylene-spiro[2.4]heptane]-5,6-dicarboxamide], the EC50 at human ALX receptor came out at 0.35 nM; on human FPRL2, 235 nM.
The like results for `CC(=O)c1csc(CNC(=O)[C@H]2[C@H](C(=O)NCCCN)[C@H]3C=C[C@@H]2C32CC2)n1` (racemic) [Example 299, (5R*)—N^5-(4-Acetyl-thiazol-2-yl-methyl)-(6R*)—N^6-(3-amino-propyl)-(4S*,7R*)-[4,7-ethenylene-spiro[2.4]heptane]-5,6-dicarboxamide] were, in that order, 273 nM and 359 nM.
`O=C(NCCCCN1CCCC1)[C@H]1[C@H](C(=O)NCCOc2ccccc2)[C@@H]2C=C[C@H]1C21CC1` (racemic) [Example 134, (5R*)—N^5-(2-Phenoxy-ethyl)-(6R*)—N^6-(4-pyrrolidin-1-yl-butyl)-(4S*,7R*)-[4,7-ethenylene-spiro[2.4]heptane]-5,6-dicarboxamide]: the half-maximal effective concentration (EC50) turned out to be 319 nM on human ALX receptor and 612 nM on human FPRL2.
For the molecule `O=C(NCC1CCNCC1)[C@H]1[C@H](C(=O)Nc2ncc(Br)s2)[C@@H]2CC[C@H]1C21CC1` [Example 337, (5R)—N^5-(5-Bromo-thiazol-2-yl)-(6R)—N^6-(piperidin-4-yl-methyl)-(4S,7R)-[4,7-ethylene-spiro[2.4]heptane]-5,6-dicarboxamide], the EC50 at human ALX receptor is 7.3 nM; at human FPRL2 it was 1210 nM.
With `O=C(NCCCCN1CCCC1)[C@H]1[C@H](C(=O)Nc2nc(C(F)(F)F)cs2)[C@@H]2C=C[C@H]1C21CC1` (racemic) [Example 345, (5R*)—N^5-(4-Trifluoromethyl-thiazol-2-yl)-(6R*)—N^6-(4-pyrrolidino-butyl)-(4S*,7R*)-[4,7-ethenylene-spiro[2.4]heptane]-5,6-dicarboxamide], the EC50 at human ALX receptor was over 25000 nM; at human FPRL2, 734 nM.
In the case of `O=C(CCc1c[nH]c2ccccc12)NC[C@H]1[C@H](C(=O)Nc2ccc(Br)cc2)[C@@H]2C=C[C@H]1C21CC1` (racemic) [Example 186, (5R*)—N^5-(4-Bromo-phenyl)-(6R*)-6-[(3-1H-indol-3-yl-propionylamino)-methyl]-(4S*,7R*)-[4,7-ethenylene-spiro[2.4]heptane]-5-carboxamide], the EC50 at human ALX receptor turned out to be 463 nM; at human FPRL2, 8960 nM.
As for `N#Cc1cnc(NC(=O)[C@H]2[C@H](C(=O)NCCCCN3CCCC3)[C@H]3C=C[C@@H]2C32CC2)s1` (racemic) [Example 130, (5R*)—N^5-(5-Cyano-thiazol-2-yl)-(6R*)—N^6-(4-pyrrolidin-1-yl-butyl)-(4S*,7R*)-[4,7-ethenylene-spiro[2.4]heptane]-5,6-dicarboxamide], the half-maximal effective concentration (EC50) on human ALX receptor turned out to be 166 nM; on human FPRL2, 6370 nM.
`O=C(NCCCCN1CCCC1)[C@H]1[C@H](C(=O)Nc2nc3ccc(Cl)cc3s2)[C@@H]2C=C[C@H]1C21CC1` (racemic) [Example 154, (5R*)—N^5-(6-Chloro-benzothiazol-2-yl)-(6R*)—N^6-(4-pyrrolidin-1-yl-butyl)-(4S*,7R*)-[4,7-ethenylene-spiro[2.4]heptane]-5,6-dicarboxamide]: the EC50 on human ALX receptor worked out at 10000 nM; at human FPRL2 it was 214 nM.
The like results for `COc1c(F)cc(CNC(=O)[C@H]2[C@H](C(=O)NCCCCN3CCCC3)[C@H]3C=C[C@@H]2C32CC2)cc1F` (racemic) [Example 229, (5R*)—N^5-(3,5-Difluoro-4-methoxy-phenyl-methyl)-(6R*)—N^6-(4-pyrrolidin-1-yl-butyl)-(4S*,7R*)-[4,7-ethenylene-spiro[2.4]heptane]-5,6-dicarboxamide] were, in that order, 119 nM and 67 nM.
Consider `NCc1ccc(CNC(=O)[C@H]2[C@H](C(=O)Nc3ccc(Br)cc3)[C@@H]3C=C[C@H]2C32CC2)cc1` (racemic) [Example 38, (5R*)—N^5-(4-Bromophenyl)-(6R*)—N^6-[(4-aminomethyl-phenyl)-methyl]-(4S*,7R*)-[4,7-ethenylene-spiro[2.4]heptane]-5,6-dicarboxamide], for which the EC50 on human ALX receptor stood at 7.5 nM; on human FPRL2 it was 1550 nM.
Turning to `O=C(NCCCO)[C@H]1[C@H](C(=O)Nc2ccc(Br)cc2)[C@@H]2CC[C@H]1C21CC1` (racemic) [Example 107, (5R*)—N^5-(4-Bromophenyl)-(6R*)—N^6-(3-hydroxy-propyl)-(4S*,7R*)-[4,7-ethylene-spiro[2.4]heptane]-5,6-dicarboxamide], the values for the EC50 on human ALX receptor and at human FPRL2 were 1.8 nM and 2270 nM, respectively.
